Assays:
Assay type in all cases: in vivo
Diabrotica balteata = Diabrotica balteata spray test; details: 168 h, wheat seeds, after 7 days, read-out: activity (efficacy, seedlings grown); for pest or weed control at 160 µg/disc, 500 g/ha: 500 g/ha (=160 μg/well)
Description: Diabrotica balteata—Spray Test
Solvent: 78.0 parts by weight of acetone • • 1.5 parts by weight of dimethylformamide
(§1) Emulsifier: alkylarylpolyglycol ether
(§2) To produce a suitable preparation of active compound, 1 part by weight of active compound is mixed with the stated amount of solvent, and the concentrate is diluted with water, containing an emulsifier concentration of 1000 ppm, to the desired concentration. Further test concentrations are prepared by dilution with emulsifier containing water.
Soaked wheat seeds (Triticum aestivum) are placed in a multiple well plate filled with agar and some water and are incubated for 1 day to germinate (5 seeds per well). The germinated wheat seeds are sprayed with a test solution containing the desired concentration of the active ingredient. Afterwards each unit is infected with 10-20 larvae of the banded cucumber beetle (Diabrotica balteata).
After 7 days efficacy in % is determined. 100% means all the seedlings have grown up like in the untreated, uninfected control; 0% means none of the seedlings have grown.

Spodoptera frugiperda = Spodoptera frugiperda spray test; details: in Zea mays, 168 h, read-out: activity (mortality)
Description: Spodoptera frugiperda—Spray Test
Solvent: 78.0 parts by weight acetone • 1.5 parts by weight dimethylformamide
as §1
as §2, with “solvents” for “solvent,”, “and” for “and the concentrate”
Maize (Zea mays) leaf sections are sprayed with a preparation of the active ingredient of the desired concentration. Once dry, the leaf sections are infested with fall armyworm larvae (Spodoptera frugiperda).
After 7 days mortality in % is determined. 100% means all caterpillars have been killed and 0% means none of the caterpillars have been killed.

Boophilus microplus = Boophilus microplus injection test (BOOPMI Injection); details: Rhipicephalus microplus, 168 h, injection into adult engorged female ticks, egg deposition after 7 days, read-out: activity (efficacy, infertile eggs); for pest or weed control at 0.004 mg: 4 μg/animal; for pest or weed control at 0.02 mg: 20 μg/animal
Description: Boophilus microplus—Injection Test (BOOPMI Injection)
(§3) Solvent: dimethyl sulfoxide
To produce a suitable preparation of active compound, 10 mg of active compound are dissolved in 0.5 mL solvent, and the concentrate is diluted with solvent to the desired concentration.
Five adult engorged female ticks (Boophilus microplus) are injected with 1 μL compound solution into the abdomen. The ticks are transferred into replica plates and incubated in a climate chamber.
After 7 days egg deposition of fertile eggs is monitored. Eggs where fertility is not visible are stored in a climate chamber till hatching after about 42 days. An efficacy of 100% means all eggs are infertile; 0% means all eggs are fertile.

Ctenocephalides felis [1] = experiment: Ctenocephalides felis in-vitro contact test, adult cat flea; details: 5 μg/cm^2 (=500 g/ha), after 48 hours, read-out: activity (efficacy, fleas dead or moribund)
Description: Ctenocephalides felis—in-Vitro Contact Tests Adult Cat Flea
(§4) 9 mg compound is solved in 1 ml acetone and diluted with acetone to the desired concentration. 250 of the test solution is filled in 25 ml glass test tubes and homogeneously distributed on the inner walls by rotation and tilting on a shaking device (2 h at 30 rpm). With a compound concentration of 900 ppm, an inner surface of 44.7 cm^2 and a homogeneous distribution, a dose of 5 μg/cm^2 is achieved.
(§5) After the solvent has evaporated, each test tube is filled with 5-10 adult cat fleas (Ctenocephalides felis), closed with a perforated lid and incubated in a lying position at room temperature and relative humidity. After 48 hours efficacy is determined. The fleas are patted on the ground of the tubes and are incubated on a heating plate at 45-50° C. for at most 5 minutes Immotile or uncoordinated moving fleas, which are not able to escape the heat by climbing upwards, are marked as dead or moribund.
An efficacy of 100% means all fleas are dead or moribund; 0% means no fleas are dead or moribund.

Ctenocephalides felis [2] = experiment: Ctenocephalides felis oral test (CTECFE); details: 48 h, 100 ppm in cattle blood, after 2 days
Description: Ctenocephalides felis—Oral Test (CTECFE)
as §3
To produce a suitable preparation of active compound, 10 mg of active compound are dissolved in 0.5 ml solvent, and the concentrate is diluted with cattle blood to the desired concentration.
Approximately 20 adult unfed cat fleas (Ctenocephalides felis) are placed in flea chambers. The blood chamber, sealed with parafilm on the bottom, are filled with cattle blood supplied with compound solution and placed on the gauze covered top of the flea chamber, so that the fleas are able to suck the blood. The blood chamber is heated to 37° C. whereas the flea chamber is kept at room temperature.
After 2 days mortality in % is determined. 100% means all the fleas have been killed; 0% means none of the fleas have been killed.

[3] = tested on: Rhipicephalus microplus (strain Parkhurst, resistant against synthetic pyrethroids); experiment: Rhipicephalus microplus in-vitro contact test, larval cattle tick (BOOPMI Contact); details: 5 μg/cm^2 (=500 g/ha), after 48 hours, read-out: activity (efficacy, larvae dead or moribund)
Description: Rhipicephalus microplus—in-Vitro Contact Tests Larval Cattle Tick (Strain Parkhurst, Resistant Against Synthetic Pyrethroids) (BOOPMI Contact)
as §4, with “250 μL” for “250”
After the solvent has evaporated, each test tube is filled with 20-50 cattle tick larvae (Rhipicephalus microplus), closed with a perforated lid and incubated in a horizontal position at 85% relative humidity and 27° C. in an incubator. After 48 hours efficacy is determined. The larvae are patted on the ground of the tubes and negative geotactic behaviour is recorded.
An efficacy of 100% means all larvae are dead or moribund; 0% means no larvae are dead or moribund.

Rhipicephalus sanguineus = Rhipicephalus sanguineus in-vitro contact test, adult brown dog ticks (RHIPSA Contact); details: 5 μg/cm^2 (=500 g/ha), after 48 hours, read-out: activity (efficacy, ticks dead or moribund)
Description: Rhipicephalus sanguineus—in-Vitro Contact Tests with Adult Brown Dog Ticks (RHIPSA Contact)
as §4, with “250 μl_,” for “250”
as §5, with “brown dog ticks (Rhipicephalus sanguineus),” for “cat fleas (Ctenocephalides felis),”, “ticks” for “fleas”, “ticks,” for “fleas,”
An efficacy of 100% means all ticks are dead or moribund; 0% means no ticks are dead or moribund.

| SMILES | pest or weed control at 100 g/ha (Diabrotica balteata) [%] | pest or weed control at 160 µg/disc, 500 g/ha (Diabrotica balteata) [%] | mortality at 500 g/ha (Spodoptera frugiperda) [%] | pest or weed control at 0.004 mg (Boophilus microplus) [%] | pest or weed control at 0.02 mg (Boophilus microplus) [%] | pest or weed control at 5 µg/cm2, 5 µg/cm2 (Ctenocephalides felis [1]) [%] | mortality at 100 ppm (Ctenocephalides felis [2]) [%] | pest or weed control at 5 µg/cm2 [3] [%] | pest or weed control at 5 µg/cm2, 5 µg/cm2 (Rhipicephalus sanguineus) [%] | mortality at 100 g/ha (Spodoptera frugiperda) [%] |
| --- | --- | --- | --- | --- | --- | --- | --- | --- | --- | --- |
| Cc1nc([C@H](C)Nc2nc3cc(C(F)(F)F)cc(Cl)c3o2)n(-c2ncccn2)n1 [Example I-014] | 100 | 100 | 100 | 100 | 100 | 80 | 100 | 100 | – | – |
| Cc1nc([C@H](C)Nc2nc3cc(C(F)(F)F)c(Cl)cc3o2)n(-c2ccc(C#N)cn2)n1 [Example I-019] | 100 | 100 | 100 | – | 100 | 100 | – | 100 | – | – |
| C[C@H](Nc1nc2cc(C(F)(F)F)c(Cl)cc2o1)c1ncnn1-c1ccc(C(F)(F)F)cn1 [Example I-031] | – | – | – | – | – | – | – | – | 80 | – |
| C[C@H](Nc1nc2cc(C(F)(F)F)cc(Cl)c2o1)c1ncnn1-c1ncc(C#N)cn1 [Example I-042, 2-{5-[(1S)-1-{[7-Chlor-5-(trifluormethyl)-1,3-benzoxazol-2-yl]amino}ethyl]-1H-1,2,4-triazol-1-yl}pyrimidin-5-carbonitril] | – | – | – | – | – | 90 | – | 90 | – | – |
| C[C@H](Nc1nc2cc(C(F)(F)F)cc(Cl)c2o1)c1ncnn1-c1cc(C#N)ccn1 [Example I-052, 2-{5-[(1S)-1-{[7-Chlor-5-(trifluormethyl)-1,3-benzoxazol-2-yl]amino}ethyl]-1H-1,2,4-triazol-1-yl}isonicotinonitril] | – | 100 | 100 | 100 | 100 | 100 | – | – | – | – |
| C[C@H](Nc1nc2cc(C(F)(F)F)c(Cl)cc2o1)c1ncnn1-c1cnc(C#N)cn1 [Example I-057, 5-{5-[(1S)-1-{[6-Chlor-5-(trifluormethyl)-1,3-benzoxazol-2-yl]amino}ethyl]-1H-1,2,4-triazol-1-yl}pyrazin-2-carbonitril] | – | – | – | 80 | – | 100 | 100 | 100 | – | 100 |
| COc1cnc(-n2ncnc2[C@H](C)Nc2nc3cc(C(F)(F)F)c(Cl)cc3o2)nc1 [Example I-058, 6-Chlor-N-{(1S)-1-[1-(5-methoxypyrimidin-2-yl)-1H-1,2,4-triazol-5-yl]ethyl}-5-(trifluormethyl)-1,3-benzoxazol-2-amin] | 100 | – | – | – | – | 100 | – | 100 | – | 83 |
| CC(C)c1cc(Cl)c2oc(N[C@@H](C)c3ncnn3-c3ccncn3)nc2c1 [Example I-066, 7-Chlor-5-isopropyl-N-{(1S)-1-[1-(pyrimidin-4-yl)-1H-1,2,4-triazol-5-yl]ethyl}-1,3-benzoxazol-2-amin] | – | 100 | – | 100 | 100 | – | – | 90 | 80 | – |
| C[C@H](Nc1nc2cc(OC(F)(F)F)cc(Cl)c2o1)c1ncnn1-c1ncccn1 [Example I-070, 7-Chlor-N-{(1S)-1-[1-(pyrimidin-2-yl)-1H-1,2,4-triazol-5-yl]ethyl}-5-(triflourmethoxy)-1,3-benzoxazol-2-amin] | 100 | – | – | – | – | 90 | 100 | – | – | 100 |
| C[C@H](Nc1nc2cc(OC(F)F)cc(Cl)c2o1)c1ncnn1-c1ncc(Br)cn1 [Example I-071, N-{(1S)-1-[1-(5-Brompyrimidin-2-yl)-1H-1,2,4-triazol-5-yl]ethyl}-7-chlor-5-(difluormethoxy)-1,3-benzoxazol-2-amin] | 100 | – | – | – | – | 90 | 100 | – | – | – |
| C[C@H](Nc1nc2cc(OC(F)F)cc(Cl)c2o1)c1ncnn1-c1ncccn1 [Example I-074, 7-Chlor-5-(difluormethoxy)-N-{(1S)-1-[1-(pyrimidin-2-yl)-1H-1,2,4-triazol-5-yl]ethyl}-1,3-benzoxazol-2-amin] | – | – | – | 80 | – | 100 | 100 | – | – | – |
| C[C@H](Nc1nc2cc(OC(F)(F)F)cc(Cl)c2o1)c1ncnn1-c1ncc(Cl)cn1 [Example I-079, 7-Chlor-N-{(1S)-1-[1-(5-chlorpyrimidin-2-yl)-1H-1,2,4-triazol-5-yl]ethyl}-5-(trifluormethoxy)-1,3-benzoxazol-2-amin] | 100 | – | – | 80 | – | 100 | 100 | – | – | – |
| C[C@H](Nc1nc2cc(C(F)(F)F)c(Br)cn2n1)c1ncnn1-c1ncccn1 [Example I-094, 6-bromo-N-{(1S)-1-[1-(pyrimidin-2-yl)-1H-1,2,4-triazol-5-yl]ethyl}-7-(trifluoromethyl)[1,2,4]triazolo[1,5-a]pyridin-2-amine] | 100 | – | – | 100 | 100 | 100 | 100 | – | – | – |

Source: patent publication US12384769B2, “Heteroaryl-substituted aminoalkyl azole compounds as pesticides” (Elanco Animal Health GmbH, priority 2019, dated 2025)
